Laboratory results reported in ChEMBL document CHEMBL1151757, “Synthesis, radiosynthesis, and biological evaluation of fluorine-18-labeled 2beta-carbo(fluoroalkoxy)-3beta-(3'-((Z)-2-haloethenyl)phenyl)nortropanes: candidate radioligands for in vivo imaging of the serotonin transporter with positron emission tomography” (J Med Chem, 2008).

Key:
[1] = Drug uptake in anesthetized cynomolgus monkey brain frontal lobe after 135 mins postinjection; format: ADME, organism-based, Macaca fascicularis; conditions: in vivo, 2.25 h
[2] = Ratio of drug uptake in medulla to cerebellum in anesthetized cynomolgus monkey after 6.5 mins postinjection; format: ADME, organism-based, Macaca fascicularis; conditions: in vivo
[3] = Ratio of drug uptake in medulla to cerebellum in awake rhesus monkey after 25 mins postinjection; format: ADME, organism-based, Macaca mulatta; conditions: in vivo
[4] = Drug uptake in awake rhesus monkey brain caudate after 55 mins postinjection; format: ADME, organism-based, Macaca mulatta, Caudate nucleus; conditions: in vivo
[5] = Protein binding in anesthetized cynomolgus monkey plasma after 180 mins postinjection; format: ADME, organism-based, Macaca fascicularis; conditions: read-out: PPB (converted)
[6] = Drug uptake in anesthetized cynomolgus monkey brain occipital lobe after 197.5 mins postinjection; format: ADME, organism-based, Macaca fascicularis; conditions: in vivo
[7] = Drug uptake in anesthetized cynomolgus monkey brain cerebellum after 202.5 mins postinjection; format: ADME, organism-based, Macaca fascicularis; conditions: in vivo, 3.375 h
Midbrain [8] = assay: Drug uptake in anesthetized cynomolgus monkey brain midbrain after 207.5 mins postinjection; format: ADME, organism-based, Macaca fascicularis; conditions: in vivo
[9] = Drug uptake in awake rhesus monkey brain frontal lobe after 2.75 mins postinjection; format: ADME, organism-based, Macaca mulatta; conditions: in vivo, 165 s
[10] = Protein binding in anesthetized cynomolgus monkey plasma after 1 min postinjection; format: ADME, organism-based, Macaca fascicularis; conditions: read-out: PPB (converted)
[11] = Protein binding in anesthetized cynomolgus monkey plasma after 60 mins postinjection; format: ADME, organism-based, Macaca fascicularis; conditions: read-out: PPB (converted)
[12] = Drug uptake in anesthetized cynomolgus monkey brain cerebellum after 182.5 mins postinjection; format: ADME, organism-based, Macaca fascicularis; conditions: in vivo
[13] = Drug uptake in anesthetized cynomolgus monkey brain cerebellum after 192.5 mins postinjection; format: ADME, organism-based, Macaca fascicularis; conditions: in vivo
[14] = Ratio of drug uptake in pons to cerebellum in awake rhesus monkey after 10.5 mins postinjection; format: ADME, organism-based, Macaca mulatta; conditions: in vivo, 0.175 h
[15] = Drug uptake in awake rhesus monkey brain pons after 2.75 mins postinjection; format: ADME, organism-based, Macaca mulatta; conditions: in vivo, 165 s
Caudate [16] = assay: Drug uptake in anesthetized cynomolgus monkey brain caudate after 182.5 mins postinjection; format: ADME, organism-based, Macaca fascicularis, Caudate nucleus; conditions: in vivo
[17] = Ratio of drug uptake in midbrain to cerebellum in awake rhesus monkey after 35 mins postinjection; format: ADME, organism-based, Macaca mulatta; conditions: in vivo
Medulla [18] = assay: Drug uptake in anesthetized cynomolgus monkey brain medulla after 182.5 mins postinjection; format: ADME, organism-based, Macaca fascicularis; conditions: in vivo
Midbrain [19] = assay: Drug uptake in anesthetized cynomolgus monkey brain midbrain after 187.5 mins postinjection; format: ADME, organism-based, Macaca fascicularis; conditions: in vivo, 3.125 h
[20] = Drug uptake in awake rhesus monkey brain cerebellum after 10.5 mins postinjection; format: ADME, organism-based, Macaca mulatta; conditions: in vivo, 0.175 h
Pons [21] = assay: Drug uptake in anesthetized cynomolgus monkey brain pons after 197.5 mins postinjection; format: ADME, organism-based, Macaca fascicularis; conditions: in vivo
[22] = Drug uptake in awake rhesus monkey brain midbrain after 85 mins postinjection; format: ADME, organism-based, Macaca mulatta; conditions: in vivo
[23] = Drug uptake in awake rhesus monkey brain caudate after 1.25 mins postinjection; format: ADME, organism-based, Macaca mulatta, Caudate nucleus; conditions: in vivo, 75 s
[24] = Drug uptake in awake rhesus monkey brain midbrain after 1.25 mins postinjection; format: ADME, organism-based, Macaca mulatta; conditions: in vivo, 75 s
[25] = Drug uptake in awake rhesus monkey brain midbrain after 35 mins postinjection; format: ADME, organism-based, Macaca mulatta; conditions: in vivo
[26] = Ratio of drug uptake in medulla to cerebellum in awake rhesus monkey after 85 mins postinjection; format: ADME, organism-based, Macaca mulatta; conditions: in vivo
[27] = Ratio of drug uptake in thalamus to cerebellum in awake rhesus monkey after 35 mins postinjection; format: ADME, organism-based, Macaca mulatta; conditions: in vivo
Pons [28] = assay: Drug uptake in anesthetized cynomolgus monkey brain pons after 207.5 mins postinjection; format: ADME, organism-based, Macaca fascicularis; conditions: in vivo
[29] = Metabolic stability in anesthetized cynomolgus monkey plasma after 1 min postinjection; format: ADME, organism-based, Macaca fascicularis; conditions: read-out: Stability
[30] = Drug uptake in awake rhesus monkey brain cerebellum after 115 mins postinjection; format: ADME, organism-based, Macaca mulatta; conditions: in vivo
Medulla [31] = assay: Drug uptake in anesthetized cynomolgus monkey brain medulla after 187.5 mins postinjection; format: ADME, organism-based, Macaca fascicularis; conditions: in vivo, 3.125 h
[32] = Drug uptake in awake rhesus monkey brain putamen after 115 mins postinjection; format: ADME, organism-based, Macaca mulatta; conditions: in vivo
Caudate [33] = assay: Drug uptake in anesthetized cynomolgus monkey brain caudate after 202.5 mins postinjection; format: ADME, organism-based, Macaca fascicularis, Caudate nucleus; conditions: in vivo, 3.375 h
[34] = Ratio of drug uptake in medulla to cerebellum in awake rhesus monkey after 45 mins postinjection; format: ADME, organism-based, Macaca mulatta; conditions: in vivo, 0.75 h
[35] = Drug uptake in awake rhesus monkey brain pons after 13.5 mins postinjection; format: ADME, organism-based, Macaca mulatta; conditions: in vivo, 0.225 h
[36] = Drug uptake in anesthetized cynomolgus monkey brain frontal lobe after 207.5 mins postinjection; format: ADME, organism-based, Macaca fascicularis; conditions: in vivo
[37] = Drug uptake in anesthetized cynomolgus monkey brain occipital lobe after 187.5 mins postinjection; format: ADME, organism-based, Macaca fascicularis; conditions: in vivo, 3.125 h
[38] = Ratio of drug uptake in occipital lobe to cerebellum in awake rhesus monkey after 7.5 mins postinjection; format: ADME, organism-based, Macaca mulatta; conditions: in vivo, 0.125 h
[39] = Drug uptake in awake rhesus monkey caudate after 0.8 mins postinjection; format: ADME, organism-based, Macaca mulatta, Caudate nucleus; conditions: in vivo, 48 s
[40] = Drug uptake in awake rhesus monkey frontal lobe after 2.8 mins postinjection; format: ADME, organism-based, Macaca mulatta; conditions: in vivo, 168 s
[41] = Ratio of drug uptake in putamen to cerebellum in awake rhesus monkey after 25 mins postinjection; format: ADME, organism-based, Macaca mulatta; conditions: in vivo
[42] = Ratio of drug uptake in occipital lobe to cerebellum in awake rhesus monkey after 0.8 mins postinjection; format: ADME, organism-based, Macaca mulatta; conditions: in vivo, 48 s
[43] = Ratio of drug uptake in pons to cerebellum in awake rhesus monkey after 2.3 mins postinjection; format: ADME, organism-based, Macaca mulatta; conditions: in vivo, 138 s
[44] = Drug uptake in awake rhesus monkey midbrain after 0.3 mins postinjection; format: ADME, organism-based, Macaca mulatta; conditions: in vivo, 0.005 h
[45] = Ratio of drug uptake in caudate to cerebellum in awake rhesus monkey after 2.8 mins postinjection; format: ADME, organism-based, Macaca mulatta; conditions: in vivo, 168 s
[46] = Ratio of drug uptake in pons to cerebellum in anesthetized cynomolgus monkey after 205 mins postinjection; format: ADME, organism-based, Macaca fascicularis; conditions: in vivo
[47] = Ratio of drug uptake in pons to cerebellum in awake rhesus monkey after 105 mins postinjection; format: ADME, organism-based, Macaca mulatta; conditions: in vivo, 1.75 h
[48] = Drug uptake in awake rhesus monkey cerebellum after 0.3 mins postinjection; format: ADME, organism-based, Macaca mulatta; conditions: in vivo, 0.005 h
[49] = Ratio of drug uptake in frontal lobe to cerebellum in awake rhesus monkey after 2.8 mins postinjection; format: ADME, organism-based, Macaca mulatta; conditions: in vivo, 168 s
[50] = Drug uptake in awake rhesus monkey medulla after 2.3 mins postinjection; format: ADME, organism-based, Macaca mulatta, Medulla of organ; conditions: in vivo, 138 s
[51] = Drug uptake in awake rhesus monkey occipital lobe after 55 mins postinjection; format: ADME, organism-based, Macaca mulatta; conditions: in vivo
[52] = Ratio of drug uptake in occipital lobe to cerebellum in awake rhesus monkey after 65 mins postinjection; format: ADME, organism-based, Macaca mulatta; conditions: in vivo
[53] = Drug uptake in awake rhesus monkey occipital lobe after 2.8 mins postinjection; format: ADME, organism-based, Macaca mulatta; conditions: in vivo, 168 s
[54] = molecular target: Sodium-dependent serotonin transporter (Homo sapiens, UniProt P31645); assay: Displacement of [3H](R,S)citalopram.HBr from human SERT transfected in human HEK293 cells; format: cell-based
[55] = Drug uptake in awake rhesus monkey cerebellum after 1.3 mins postinjection; format: ADME, organism-based, Macaca mulatta; conditions: in vivo, 78 s
[56] = Drug uptake in awake rhesus monkey thalamus after 2.8 mins postinjection; format: ADME, organism-based, Macaca mulatta; conditions: in vivo, 168 s
[57] = Ratio of drug uptake in pons to cerebellum in awake rhesus monkey after 0.8 mins postinjection; format: ADME, organism-based, Macaca mulatta; conditions: in vivo, 48 s
[58] = Ratio of drug uptake in frontal lobe to cerebellum in awake rhesus monkey after 65 mins postinjection; format: ADME, organism-based, Macaca mulatta; conditions: in vivo
[59] = Drug uptake in awake rhesus monkey occipital lobe after 115 mins postinjection; format: ADME, organism-based, Macaca mulatta; conditions: in vivo
[60] = Ratio of drug uptake in pons to cerebellum in anesthetized cynomolgus monkey after 165 mins postinjection; format: ADME, organism-based, Macaca fascicularis; conditions: in vivo, 2.75 h
[61] = Drug uptake in awake rhesus monkey putamen after 2.3 mins postinjection; format: ADME, organism-based, Macaca mulatta; conditions: in vivo, 138 s
[62] = Drug uptake in awake rhesus monkey cerebellum after 1.8 mins postinjection; format: ADME, organism-based, Macaca mulatta; conditions: in vivo, 0.03 h
[63] = molecular target: Sodium-dependent dopamine transporter (Homo sapiens, UniProt Q01959); assay: Displacement of [3H]RTI-55 from human DAT transfected in human HEK293 cells; format: cell-based
[64] = Ratio of drug uptake in pons to cerebellum in awake rhesus monkey after 2.8 mins postinjection; format: ADME, organism-based, Macaca mulatta; conditions: in vivo, 168 s
[65] = Drug uptake in awake rhesus monkey caudate after 2.8 mins postinjection; format: ADME, organism-based, Macaca mulatta, Caudate nucleus; conditions: in vivo, 168 s

Sodium-dependent serotonin transporter, sequence (P31645 whole entry): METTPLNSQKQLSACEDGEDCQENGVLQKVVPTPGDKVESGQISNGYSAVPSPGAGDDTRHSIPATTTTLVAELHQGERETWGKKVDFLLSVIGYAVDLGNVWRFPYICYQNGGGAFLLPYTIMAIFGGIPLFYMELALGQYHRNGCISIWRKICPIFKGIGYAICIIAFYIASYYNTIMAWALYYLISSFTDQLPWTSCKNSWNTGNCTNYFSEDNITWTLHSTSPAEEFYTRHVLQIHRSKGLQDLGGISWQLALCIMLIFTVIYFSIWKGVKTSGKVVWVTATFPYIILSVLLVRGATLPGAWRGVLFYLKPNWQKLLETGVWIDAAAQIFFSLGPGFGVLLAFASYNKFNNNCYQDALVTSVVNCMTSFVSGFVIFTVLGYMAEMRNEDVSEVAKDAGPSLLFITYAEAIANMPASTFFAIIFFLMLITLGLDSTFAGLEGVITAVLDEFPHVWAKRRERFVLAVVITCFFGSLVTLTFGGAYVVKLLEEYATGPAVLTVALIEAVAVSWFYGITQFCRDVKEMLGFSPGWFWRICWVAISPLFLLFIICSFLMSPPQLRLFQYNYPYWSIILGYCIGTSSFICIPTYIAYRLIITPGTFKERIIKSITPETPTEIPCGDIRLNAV
Sodium-dependent dopamine transporter, sequence (Q01959 whole entry): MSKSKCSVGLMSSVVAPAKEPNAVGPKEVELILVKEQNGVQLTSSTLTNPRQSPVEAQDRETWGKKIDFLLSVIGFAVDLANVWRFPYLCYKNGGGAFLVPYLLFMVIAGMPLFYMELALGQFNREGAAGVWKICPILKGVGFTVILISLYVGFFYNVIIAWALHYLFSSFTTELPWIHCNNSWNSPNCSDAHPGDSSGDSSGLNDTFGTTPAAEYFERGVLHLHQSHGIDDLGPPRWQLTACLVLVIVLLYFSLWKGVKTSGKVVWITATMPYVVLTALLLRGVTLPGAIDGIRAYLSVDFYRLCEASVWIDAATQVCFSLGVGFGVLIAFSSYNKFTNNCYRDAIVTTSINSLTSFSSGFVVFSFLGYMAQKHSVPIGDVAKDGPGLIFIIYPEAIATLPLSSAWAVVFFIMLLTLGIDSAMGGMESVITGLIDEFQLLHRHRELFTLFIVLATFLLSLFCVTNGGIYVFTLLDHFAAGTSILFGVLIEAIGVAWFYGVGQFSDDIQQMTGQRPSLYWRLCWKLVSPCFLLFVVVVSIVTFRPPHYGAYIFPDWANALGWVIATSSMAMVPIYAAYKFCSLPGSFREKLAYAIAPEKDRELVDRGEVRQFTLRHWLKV

O=C(OCCC[18F])C1C2CCC(CC1c1cccc(/C=C\I)c1)N2 (centres undefined)
Drug uptake [1]: 2.35
Ratio [2]: 1

O=C(OCC[18F])C1C2CCC(CC1c1cccc(/C=C\Br)c1)N2 (centres undefined)
Drug uptake [1]: 2.56
Ratio [2]: 1.3

O=C(OCC[18F])C1C2CCC(CC1c1cccc(/C=C\I)c1)N2 (centres undefined)
Ratio [3]: 1
Drug uptake [4]: 0.15
fraction unbound at 3 h [5]: 0.915
Drug uptake [6]: 1.39
Drug uptake [7]: 1.43
Drug uptake (Midbrain [8]): 3.17
Drug uptake [9]: 0.03
fraction unbound at 1 min [10]: 0.942
fraction unbound at 1 h [11]: 0.915
Drug uptake [12]: 1.52
Drug uptake [13]: 1.49
Ratio [14]: 0.9
Drug uptake [15]: 0.02
Drug uptake (Caudate [16]): 2.31
Ratio [17]: 1.3
Drug uptake (Medulla [18]): 2.68
Drug uptake (Midbrain [19]): 3.37
Drug uptake [20]: 0.08
Drug uptake (Pons [21]): 2.25
Drug uptake [22]: 0.16
Drug uptake [23]: 0.01
Drug uptake [24]: 0.01
Drug uptake [25]: 0.14
Ratio [26]: 1.1
Ratio [27]: 1.4
Drug uptake (Pons [28]): 2.19
remaining at 1 min [29]: 93%
Drug uptake [30]: 0.08
Drug uptake (Medulla [31]): 2.64
Drug uptake [32]: 0.13
Drug uptake (Caudate [33]): 2.21
Ratio [34]: 1
Drug uptake [35]: 0.08

O=C(OCCC[18F])C1C2CCC(CC1c1cccc(/C=C\Br)c1)N2 (centres undefined)
Drug uptake [6]: 2.91
Drug uptake [7]: 2.13
Drug uptake (Midbrain [8]): 4.46
Drug uptake [36]: 2.03
Drug uptake [37]: 3.05
Drug uptake [12]: 2.27
Drug uptake [13]: 2.38
Drug uptake (Caudate [16]): 3.95
Drug uptake (Medulla [18]): 4.22
Drug uptake (Midbrain [19]): 4.65
Drug uptake (Pons [21]): 3.36
Drug uptake (Pons [28]): 3.24
Drug uptake (Medulla [31]): 4.04
Drug uptake (Caudate [33]): 3.64

O=C(OCC[18F])C1C2CCC(CC1c1ccc(/C=C\I)cc1)N2 (centres undefined)
Drug uptake [4]: 3.11
Ratio [38]: 1
Drug uptake [39]: 0
Drug uptake [40]: 0.47
Ratio [41]: 1.3
Ratio [42]: 1.9
Ratio [43]: 0.9
Drug uptake [44]: 0.08
Ratio [45]: 1
Ratio [46]: 2.7
Ratio [47]: 1.8
Drug uptake [48]: 0.01
Ratio [49]: 0.9
Drug uptake [50]: 0.68
Ratio [14]: 0.9
Drug uptake [51]: 2.73
Ratio [52]: 1.6
Drug uptake [53]: 0.53
Ki [54]: 0.08 nM
Drug uptake [55]: 0.06
Drug uptake [56]: 0.65
Drug uptake [20]: 1.66
Ratio [57]: 4.8
Drug uptake [22]: 2.99
Ratio [58]: 1.3
Drug uptake [25]: 2.7
Drug uptake [59]: 2.57
Ratio [60]: 2.6
Drug uptake [61]: 0.46
Drug uptake [62]: 0.27
Ki [63]: 13 nM
Ratio [64]: 1
Drug uptake [65]: 0.53
